# PMC7735645 (Journal of the American Chemical Society, 2019)
# What was measured:
# [1] = water/octanol partition coefficient; type: physicochemical
# A549 cells [2] = assay: NPM1 relocalization; type: cell-based; details: for NPM1 redistribution: free ligand alone, Figures S2 and S3
# DNA damage = DNA damage in treated cells; type: cell-based; details: early time points, unpublished data from the authors' lab
# A549 cells [3] = assay: 24 h IC50; type: cell-based; details: read-out: 24 h IC50 value, Table S1
# [4] = A549 cells, 24 h treatment, 10 μM
compound,measurement,setting,value
"NC1CCCCC1N.[Cl][Pt][Cl] (stereo not drawn) [compound 4, DACHPt]","relative hydrophobicity (water/octanol partition coefficient, log P)",[1],more hydrophobic than the simpler diam(m)ine compounds
same,NPM1 redistribution / nucleolar stress induction,A549 cells [2]; [4],induces robust nucleolar stress
"N.N.[Cl][Pt][Cl] [compound 1, cisplatin, reference compound]",DNA damage relative to NPM1 relocation,DNA damage,DNA damage occurs at early time points
same,NPM1 redistribution / nucleolar stress induction,A549 cells [2]; [4],more closely resembles that of the no-treatment control
same,NPM1 redistribution / nucleolar stress induction,"A549 cells [2]; A549 cells, 24 h treatment, 10 μM, listed as cisplatin",a small amount of NPM1 redistribution was observed
"[NH2][Pt]1([NH2])[O]C(=O)C2(CCC2)C(=O)[O]1 [compound 3, carboplatin, reference compound]",NPM1 redistribution / nucleolar stress induction,A549 cells [2]; [4],more closely resembles that of the no-treatment control
"N.N.O=C([O-])C(=O)[O-].[Pt+2] [compound 5, DOAP]",NPM1 redistribution / nucleolar stress induction,A549 cells [2]; [4],does not induce stress
"NC1CCCCC1N (stereo not drawn) [DACH ligand, diaminocyclohexane, reference compound]",NPM1 redistribution,A549 cells [2],no influence on NPM1 redistribution
Pentaplatin [compound 9],NPM1 redistribution / nucleolar stress induction,A549 cells [2]; [4],found to induce nucleolar stress
same,coefficient of variation (CV) of NPM1 intensity,A549 cells [2]; [4],slightly higher resultant CV than positive controls or oxaliplatin
"O=C(O)C(=O)O [oxalic acid ligand, oxalic acid, reference compound]",NPM1 redistribution,A549 cells [2],no influence on NPM1 redistribution
"O=C1[O][Pt]2([NH][C@@H]3CCCC[C@H]3[NH]2)[O]C1=O [compound 2, oxaliplatin, reference compound]",DNA damage relative to NPM1 relocation,DNA damage,no such damage occurs prior to observed NPM1 distribution
same,IC50,A549 cells [3],81.5 µM
same,NPM1 redistribution / nucleolar stress induction,A549 cells [2]; [4],induces robust redistribution of NPM1
same,NPM1 redistribution / nucleolar stress induction,"A549 cells [2]; A549 cells, 24 h treatment, 10 μM, listed as Oxaliplatin",robust NPM1 relocalization
